Source: US20230157952A1, “METHOD FOR IMPROVING THE STABILITY OF A PHARMACEUTICAL COMPOSITION COMPRISING A HIGH PENETRATION DRUG, AND THE PHARMACEUTICAL COMPOSITION OBTAINED THEREFROM” (Techfields Inc., priority 2020, published 2023)

Assays:
[1] = Effect of temperature (and pH) on the stability of the solution (purity); format: physicochemical; conditions: 7% solution in water
[2] = Effect of concentration on the stability of the solution (purity over time); conditions: in water at 25° C.

Stability of the solution at a temperature higher than 40° C. and a pH lower than 3 or greater than 6 [1]: not stable
Purity at Day 3 ([2]; 0.01 wt %): 84.7%
Purity at Day 7 ([2]; 0.01 wt %): 73.9%
Purity at Day 14 ([2]; 0.01 wt %): 62.3%
Purity at Day 21 ([2]; 0.01 wt %): 52.9%
Purity at Day 28 ([2]; 0.01 wt %): 42.9%
Purity at hr 0 ([2]; 0.01 wt %): 97.8%
Purity at Day 3 ([2]; 0.1 wt %): 96.7%
Purity at Day 7 ([2]; 0.1 wt %): 95.5%
Purity at Day 14 ([2]; 0.1 wt %): 91.1%
Purity at Day 21 ([2]; 0.1 wt %): 87.2%
Purity at Day 28 ([2]; 0.1 wt %): 83.0%
Purity at hr 0 ([2]; 0.1 wt %): 97.9%
Purity at Day 3 ([2]; 1 wt %): 97.0%
Purity at Day 7 ([2]; 1 wt %): 96.0%
Purity at Day 14 ([2]; 1 wt %): 94.0%
Purity at Day 21 ([2]; 1 wt %): 92.3%
Purity at Day 28 ([2]; 1 wt %): 89.9%
Purity at hr 0 ([2]; 1 wt %): 98.1%
Purity at Day 3 ([2]; 3 wt %): 97.5%
Purity at Day 7 ([2]; 3 wt %): 97.0%
Purity at Day 14 ([2]; 3 wt %): 95.7%
Purity at Day 21 ([2]; 3 wt %): 94.3%
Purity at Day 28 ([2]; 3 wt %): 92.8%
Purity at hr 0 ([2]; 3 wt %): 98.3%
Purity at Day 3 ([2]; 5 wt %): 98.0%
Purity at Day 7 ([2]; 5 wt %): 97.9%
Purity at Day 14 ([2]; 5 wt %): 97.6%
Purity at Day 21 ([2]; 5 wt %): 97.0%
Purity at Day 28 ([2]; 5 wt %): 96.3%
Purity at hr 0 ([2]; 5 wt %): 98.5%
Purity at Day 3 ([2]; 7 wt %): 98.4%
Purity at Day 7 ([2]; 7 wt %): 98.2%
Purity at Day 14 ([2]; 7 wt %): 98.0%
Purity at Day 21 ([2]; 7 wt %): 97.8%
Purity at Day 28 ([2]; 7 wt %): 97.4%
Purity at hr 0 ([2]; 7 wt %): 98.6%
Purity at Day 3 ([2]; 8 wt %): 98.5%
Purity at Day 7 ([2]; 8 wt %): 98.3%
Purity at Day 14 ([2]; 8 wt %): 98.1%
Purity at Day 21 ([2]; 8 wt %): 97.8%
Purity at Day 28 ([2]; 8 wt %): 97.4%
Purity at hr 0 ([2]; 8 wt %): 98.6%
Purity at Day 3 ([2]; 10 wt %): 98.4%
Purity at Day 7 ([2]; 10 wt %): 98.3%
Purity at Day 14 ([2]; 10 wt %): 98.2%
Purity at Day 21 ([2]; 10 wt %): 97.7%
Purity at Day 28 ([2]; 10 wt %): 97.3%
Purity at hr 0 ([2]; 10 wt %): 98.5%
Purity at Day 3 ([2]; 15 wt %): 98.5%
Purity at Day 7 ([2]; 15 wt %): 98.3%
Purity at Day 14 ([2]; 15 wt %): 98.1%
Purity at Day 21 ([2]; 15 wt %): 97.7%
Purity at Day 28 ([2]; 15 wt %): 97.5%
Purity at hr 0 ([2]; 15 wt %): 98.6%
Purity at Day 3 ([2]; 20 wt %): 98.4%
Purity at Day 7 ([2]; 20 wt %): 98.3%
Purity at Day 14 ([2]; 20 wt %): 98.2%
Purity at Day 21 ([2]; 20 wt %): 97.8%
Purity at Day 28 ([2]; 20 wt %): 97.4%
Purity at hr 0 ([2]; 20 wt %): 98.5%
Purity at Day 3 ([2]; 30 wt %): 98.5%
Purity at Day 7 ([2]; 30 wt %): 98.3%
Purity at Day 14 ([2]; 30 wt %): 98.0%
Purity at Day 21 ([2]; 30 wt %): 97.7%
Purity at Day 28 ([2]; 30 wt %): 97.3%
Purity at hr 0 ([2]; 30 wt %): 98.6%
Purity at Day 3 ([2]; 50 wt %): 98.5%
Purity at Day 7 ([2]; 50 wt %): 98.3%
Purity at Day 14 ([2]; 50 wt %): 98.0%
Purity at Day 21 ([2]; 50 wt %): 97.9%
Purity at Day 28 ([2]; 50 wt %): 97.5%
Purity at hr 0 ([2]; 50 wt %): 98.5%
Stability when the concentration is 0.1% or lower [2]: not stable
SMILES: CCN(CC)CCOC(=O)C(C)c1ccc2oc(-c3ccc(Cl)cc3)nc2c1.Cl (centres unmarked) [2-(diethylamino)ethyl 2-[(4-chlorophenyl)-5-benzoxazole]propionate•HCl]
